Measured values as given in US7647217B2, “Structure of the farnesoid X receptor ligand binding domain and methods of use therefor” (The Salk Institute for Biological Studies, priority 2002, dated 2010).
“And” between values parts separate entries of the source, which are not always exact repeats. Identical values can stand only once.

Experiments:
[1] = molecular target: T1, FXR (Mus musculus, UniProt Q60641); assay: Cell-based screen: full-length FXR expression vector co-transfected with hormone response element luciferase reporter; details: FXR agonist activity
T1 construct: expression vector containing the full-length FXR receptor; expressed in transfected cells
T1 sequence (Q60641 1-488): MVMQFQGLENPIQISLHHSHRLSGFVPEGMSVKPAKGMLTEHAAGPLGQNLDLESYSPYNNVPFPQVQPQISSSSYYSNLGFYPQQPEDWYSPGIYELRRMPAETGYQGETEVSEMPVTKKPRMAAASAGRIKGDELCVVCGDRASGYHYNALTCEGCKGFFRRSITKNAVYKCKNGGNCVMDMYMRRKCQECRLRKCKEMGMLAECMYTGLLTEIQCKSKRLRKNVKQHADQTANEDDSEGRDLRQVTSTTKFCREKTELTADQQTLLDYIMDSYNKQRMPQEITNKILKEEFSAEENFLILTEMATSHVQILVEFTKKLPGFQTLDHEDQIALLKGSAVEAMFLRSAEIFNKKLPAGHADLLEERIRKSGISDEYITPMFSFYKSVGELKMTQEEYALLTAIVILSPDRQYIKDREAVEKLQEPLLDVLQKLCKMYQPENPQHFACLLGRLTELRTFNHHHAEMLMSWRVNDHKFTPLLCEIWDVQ
T1 sequence (P19793 1-462 partner): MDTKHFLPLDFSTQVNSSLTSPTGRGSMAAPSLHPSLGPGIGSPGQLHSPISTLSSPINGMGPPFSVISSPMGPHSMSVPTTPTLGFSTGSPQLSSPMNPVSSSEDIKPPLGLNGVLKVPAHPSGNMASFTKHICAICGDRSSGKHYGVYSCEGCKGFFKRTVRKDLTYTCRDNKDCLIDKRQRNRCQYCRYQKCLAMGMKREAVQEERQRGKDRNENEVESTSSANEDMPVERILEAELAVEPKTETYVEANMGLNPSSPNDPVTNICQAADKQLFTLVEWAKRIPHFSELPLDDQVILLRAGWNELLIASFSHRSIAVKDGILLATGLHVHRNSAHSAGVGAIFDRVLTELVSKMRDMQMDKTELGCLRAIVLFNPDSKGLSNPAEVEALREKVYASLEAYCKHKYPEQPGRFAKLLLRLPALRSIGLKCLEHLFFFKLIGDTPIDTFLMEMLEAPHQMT
Procedure: (§1) For transfection of these constructs, monkey CV-1 HEPG2 and HEK293T cells were grown in DMEM supplemented with 10% FBS, 50 U/ml penicillin G, and 50 μg/ml streptomycin sulfate at 37° C. in 7% CO2. CV-1 cells (60%-70% confluence, 48-well plate) were cotransfected with 16.6 ng of the appropriate expression vector, 100 ng of reporter plasmid, and 100 ng of pCMX-LacZ in 200 μl of DMEM containing 10% FBS by the N-[1-(2,3-dioleoyloxy)propyl]-N,N,N-trimethylammonium methylsulfate (DOTAP)-mediated procedure. After 24 hr, the medium was replaced, and cells were harvested and assayed for luciferase activity 36-48 hr after transfection. The luciferase activity was normalized to the level of β-galactosidase activity. Each transfection was performed in triplicate and repeated at least three times.
To discover novel small molecule ligands for FXR, a constructed combinatorial library of approximately 10 000 benzopyran compounds was screened using a cell-based assay in a 384 well format (Nicolaou et al. (2000). Natural product-like combinatorial libraries based on privileged structures. 1. General principles and solid-phase synthesis of benzopyrans. J. Am. Chem. Soc. 122, 9939-9953; Natural product-like combinatorial libraries based on privileged structures. 2. Construction of a 10000-membered benzopyran library by directed split-and-pool chemistry using nanokans and optical encoding. J. Am. Chem. Soc. 122, 9954-9967; and Natural product-like combinatorial libraries based on privileged structures. 3. The “libraries from libraries” principle for diversity enhancement of benzopyran libraries. J. Am. Chem. Soc. 122, 9968-9976). This cell-based screen was based on the co-transfection of an expression vector containing the full-length FXR receptor with a reporter vector. The reporter vector contains a hormone response element under a minimal eukaryotic promoter driving a luciferase reporter gene. […] Lead compounds were re-tested and checked for cross-reactivity for the retinoid X receptor (RXR), the heterodimeric partner of FXR. None of the identified compounds had the ability to bind or activate RXR.
Systematic optimization of regions I and II of the prototypical structure through multiple rounds of screening using smaller “focused” chemical libraries defined the requisite features of these domains for high affinity binding to FXR. […] This intelligence gathering was then used to design and synthesize on a solid support a focused library of 94 new compounds for further optimization.

[2] = molecular target: T2, mouse FXR (Mus musculus, UniProt Q60641); assay: CV-1 transient transfection assay with natural promoters of FXR targets (hIBABP, hPLTP, hMRP-2); format: cell-based; details: for activation of IBABP promoter: hIBABP promoter; for concentration of maximum efficacy / activity on natural promoters: hIBABP, hPLTP, hMRP-2 promoters
T2 construct: expressed in transfected cells; host or cells: CV-1 (monkey)
T2 sequence (Q60641 1-488): T1 sequence (Q60641 1-488)
T2 sequence (P19793 1-462 partner): T1 sequence (P19793 1-462 partner)
Procedure: FIGS. 2A-2F collectively show the results of ligand activation of CV-1 cells co-transfected with FXR constructs pCMX-mFXR and pCMX-hRXR and a luciferase reporter gene containing various promoters as follows: FIG. 2A with a minimal TK promoter, FIG. 2B with a TK-ECRE*6 promoter, FIG. 2C with a TK-ER8*2 promoter, FIG. 2D with HIBABP promoter, FIG. 2E with a hPLTP promoter, or FIG. 2 with a FhMRP-2 promoter.
as §1
For this study, the following gene promoters were used: intestinal bile acid binding protein (IBABP; see, for example, Grober et al. (1999). Identification of a bile acid-responsive element in the human ileal bile acid-binding protein gene. Involvement of the farnesoid X receptor/9-is-retinoic acid receptor heterodimer. J Biol Chem. 274(42), 29749-54>, phospholipid transfer protein (PLTP) (Urizar et al (2000). The farnesoid X-activated receptor mediates bile acid activation of phospholipid transfer protein gene expression. J Biol Chem. 275(50), 39313-7) and multidrug resistance related protein 2 (MRP-2) (Kast et al. (2002), supra), which are all well characterized targets of FXR. The natural promoters of both the IBABP and PLTP genes contain one copy of an inverted repeat with a one base spacing (IR-1) while MRP-2 contains an ER-8 element. […] The most robust activation (28-fold) was seen on the IBABP promoter. Less robust (2-3 fold) but specific activation was observed on the PLTP and MRP-2 promoters.

Row | SMILES | EC50 [1] | activation of IBABP promoter [2] [fold] | concentration of maximum efficacy [2] [µM] | activity on natural promoters [2]
1 | COC(=O)/C=C/c1cccc(N(Cc2ccc(-c3ccc(N(C)C)cc3)cc2)C(=O)C2CCCCC2)c1 [fexaramine] | 25 nM | 28 | 1 | 
2 | CC(C)c1onc(-c2c(Cl)cccc2Cl)c1COc1ccc(/C=C/c2cccc(C(=O)O)c2)c(Cl)c1 [GW4064, reference compound] | ~90 nM and 80 nM | 28 | 1 | 
3 | COC(=O)/C=C/c1cccc(N(Cc2ccc(-c3ccccc3OC)cc2)C(=O)C(C)C)c1 [SRI-1] | 377 nM |  |  | little or no activity
4 | COC(=O)/C=C/c1cccc(N(Cc2ccc(-c3ccc4c(c3)OCO4)cc2)C(=O)C2CCCCC2)c1 [fexarine] | 38 nM | 28 | 1 | 
5 | COC(=O)/C=C/c1cccc(N(Cc2ccc(-c3ccc(C(C)(C)C)cc3)cc2)C(=O)C(C)C)c1 [SRI-2] | 343 nM |  |  | little or no activity
6 | COC(=O)/C=C/c1cccc(N(Cc2ccc(/C=C/c3ccccc3)cc2)C(=O)C2CCCCC2)c1 [fexarene] | 36 nM | 28 | 1 | 
